Assay results as given in the NIST ThermoML archive (doi:10.1016/j.fluid.2013.09.030).
± gives the expanded uncertainty stated by the source.

Key:
[1] = Liquid; for mass density: 298.15 K, 101.33 kPa, Vibrating tube method; for vapor or sublimation pressure: Ebulliometric method (Recirculating still)
[2] = refractive index (Na D-line) (dimensionless); details: 298.15 K; 101.33 kPa; Liquid; Standard Abbe refractometry
[3] = Boiling temperature at pressure P; details: Liquid, Ebulliometric method (Recirculating still)
[4] = xn = mol fraction of the nth substance listed; details: 298.15 K, 101 kPa, Liquid, Vibrating tube method
[5] = refractive index (Na D-line) (dimensionless); xn = mol fraction of the nth substance listed; details: 298.15 K, 101 kPa, Liquid, Standard Abbe refractometry

## COC(=O)OC [dimethyl carbonate]
[1]
  mass density: 1063.26 ± 0.06 kg/m3
[1]; 363.25 K
  vapor or sublimation pressure: 101.3 ± 0.3 kPa
[2]
  refractive index: 1.3666 ± 0.0004

## CO [methanol]
[1]
  mass density: 786.69 ± 0.12 kg/m3
[1]; 338.12 K
  vapor or sublimation pressure: 101.3 ± 0.3 kPa
[2]
  refractive index: 1.3267 ± 0.0004

## COC(=O)Oc1ccccc1 [methyl phenyl carbonate]
[1]
  mass density: 1143.63 ± 0.15 kg/m3
[3]; 3 kPa
  Boiling temperature at pressure P: 105.66 ± 1.8 °C
[3]; 5 kPa
  Boiling temperature at pressure P: 118.02 ± 1.2 °C
[3]; 10 kPa
  Boiling temperature at pressure P: 136.72 ± 0.86 °C
[3]; 15 kPa
  Boiling temperature at pressure P: 148.41 ± 0.58 °C
[3]; 20 kPa
  Boiling temperature at pressure P: 157.08 ± 0.45 °C
[3]; 25 kPa
  Boiling temperature at pressure P: 164.10 ± 0.37 °C
[3]; 30 kPa
  Boiling temperature at pressure P: 170.01 ± 0.31 °C
[3]; 35 kPa
  Boiling temperature at pressure P: 174.97 ± 0.27 °C
[3]; 40 kPa
  Boiling temperature at pressure P: 179.58 ± 0.25 °C
[3]; 45 kPa
  Boiling temperature at pressure P: 183.76 ± 0.23 °C
[3]; 50 kPa
  Boiling temperature at pressure P: 187.52 ± 0.21 °C
[3]; 55 kPa
  Boiling temperature at pressure P: 190.94 ± 0.19 °C
[3]; 60 kPa
  Boiling temperature at pressure P: 194.06 ± 0.18 °C
[3]; 65 kPa
  Boiling temperature at pressure P: 197.11 ± 0.17 °C
[3]; 70 kPa
  Boiling temperature at pressure P: 199.87 ± 0.15 °C
[3]; 75 kPa
  Boiling temperature at pressure P: 202.31 ± 0.15 °C
[3]; 80 kPa
  Boiling temperature at pressure P: 204.76 ± 0.15 °C
[3]; 85 kPa
  Boiling temperature at pressure P: 207.20 ± 0.14 °C
[3]; 90 kPa
  Boiling temperature at pressure P: 209.54 ± 0.14 °C
[3]; 95 kPa
  Boiling temperature at pressure P: 211.70 ± 0.12 °C
[3]; 100 kPa
  Boiling temperature at pressure P: 213.56 ± 0.12 °C
[3]; 101.3 kPa
  Boiling temperature at pressure P: 214.33 ± 0.14 °C
[3]; 102.1 kPa
  Boiling temperature at pressure P: 214.51 ± 0.08 °C
[2]
  refractive index: 1.4948 ± 0.0004

## COC(=O)Oc1ccccc1 [methyl phenyl carbonate] + CO
[4]; x1 = 0.0501
  mass density: 842.07 ± 0.2 kg/m3
[4]; x1 = 0.1001
  mass density: 886.48 ± 0.17 kg/m3
[4]; x1 = 0.2002
  mass density: 953.27 ± 0.13 kg/m3
[4]; x1 = 0.3002
  mass density: 1000.92 ± 0.09 kg/m3
[4]; x1 = 0.4003
  mass density: 1036.71 ± 0.09 kg/m3
[4]; x1 = 0.5
  mass density: 1064.49 ± 0.09 kg/m3
[4]; x1 = 0.6013
  mass density: 1087.16 ± 0.1 kg/m3
[4]; x1 = 0.7008
  mass density: 1105.28 ± 0.11 kg/m3
[4]; x1 = 0.8003
  mass density: 1120.25 ± 0.12 kg/m3
[4]; x1 = 0.9015
  mass density: 1133.12 ± 0.13 kg/m3
[4]; x1 = 0.9471
  mass density: 1138.14 ± 0.14 kg/m3
[5]; x1 = 0.0501
  refractive index: 1.3647 ± 0.0004
[5]; x1 = 0.1001
  refractive index: 1.3885 ± 0.0004
[5]; x1 = 0.2002
  refractive index: 1.4283 ± 0.0004
[5]; x1 = 0.3002
  refractive index: 1.45 ± 0.0004
[5]; x1 = 0.4003
  refractive index: 1.467 ± 0.0004
[5]; x1 = 0.5
  refractive index: 1.4748 ± 0.0004
[5]; x1 = 0.6013
  refractive index: 1.4801 ± 0.0004
[5]; x1 = 0.7008
  refractive index: 1.4848 ± 0.0004
[5]; x1 = 0.8003
  refractive index: 1.4877 ± 0.0004
[5]; x1 = 0.9015
  refractive index: 1.4915 ± 0.0004
[5]; x1 = 0.9471
  refractive index: 1.4929 ± 0.0004

## COC(=O)Oc1ccccc1 [methyl phenyl carbonate] + COC(=O)OC
[4]; x1 = 0.0499
  mass density: 1069.88 ± 0.07 kg/m3
[4]; x1 = 0.1
  mass density: 1076.1 ± 0.07 kg/m3
[4]; x1 = 0.2001
  mass density: 1087.37 ± 0.08 kg/m3
[4]; x1 = 0.2999
  mass density: 1097.32 ± 0.08 kg/m3
[4]; x1 = 0.4
  mass density: 1106.17 ± 0.09 kg/m3
[4]; x1 = 0.5002
  mass density: 1114.08 ± 0.09 kg/m3
[4]; x1 = 0.6
  mass density: 1121.17 ± 0.1 kg/m3
[4]; x1 = 0.7007
  mass density: 1127.6 ± 0.11 kg/m3
[4]; x1 = 0.8003
  mass density: 1133.42 ± 0.12 kg/m3
[4]; x1 = 0.8991
  mass density: 1138.71 ± 0.13 kg/m3
[4]; x1 = 0.9493
  mass density: 1141.22 ± 0.14 kg/m3
[5]; x1 = 0.0499
  refractive index: 1.3764 ± 0.0004
[5]; x1 = 0.1
  refractive index: 1.3863 ± 0.0004
[5]; x1 = 0.2001
  refractive index: 1.4038 ± 0.0004
[5]; x1 = 0.2999
  refractive index: 1.419 ± 0.0004
[5]; x1 = 0.4
  refractive index: 1.4336 ± 0.0004
[5]; x1 = 0.5002
  refractive index: 1.4463 ± 0.0004
[5]; x1 = 0.6
  refractive index: 1.4575 ± 0.0004
[5]; x1 = 0.7007
  refractive index: 1.468 ± 0.0004
[5]; x1 = 0.8003
  refractive index: 1.4774 ± 0.0004
[5]; x1 = 0.8991
  refractive index: 1.4853 ± 0.0004
[5]; x1 = 0.9493
  refractive index: 1.4901 ± 0.0004
